# The PolyMetriX glass transition set
# ± gives the standard deviation of the reports.
row,SMILES,glass transition temperature
1,*CC(=O)NCCCCCCNC(=O)CS* (repeat unit),-7.00 °C
2,*Nc1ccc(C(c2ccc(NC(=O)c3cccc(C(*)=O)c3)cc2)(P2(=O)Oc3ccccc3-c3ccccc32)P2(=O)Oc3ccccc3-c3ccccc32)cc1 (repeat unit),230.00 °C
3,*Nc1ccc(N[Se]*)cc1 (repeat unit),55.00 °C
4,*/C=C(/*)C(CCCCC)[Si](C)(C)C (repeat unit),170.00 °C
5,*CC(*)C(=O)OCCCOCC (repeat unit),-61.50 °C
6,*CC(*)C(=O)c1ccc(C(C)(C)C)cc1 (repeat unit),103.50 °C
7,*CC(*)(C)C(=O)OCc1ccc[se]1 (repeat unit),56.00 °C
8,*CC(*)C(=O)Oc1c(F)c(F)c(F)c(F)c1F (repeat unit),64.00 °C
9,*/C(C)=C(/*)[Si](C)(C)CC[Si](C)(C)C (repeat unit),200.00 °C
10,*CCCS(=O)(=O)CCCS(=O)(=O)CCCOC(=O)c1ccccc1C(=O)O* (repeat unit),52.00 °C
11,*CCC(*)=O (repeat unit),15.00 °C
12,*c1ccc(Oc2ccc(-c3c(-c4ccccc4)c4c(c(-c5ccccc5)c3-c3ccccc3)C(=O)N(c3cccc(N5C(=O)c6c(c(-c7ccccc7)c(-c7ccccc7)c(*)c6-c6ccccc6)C5=O)c3)C4=O)cc2)cc1 (repeat unit),357.00 °C
13,*N(C)[Si](C)(C=C)N(C)[Si](*)(C)C (repeat unit),-42.00 °C
14,*CCCCCCOC(=O)NCCCCNC(=O)O* (repeat unit),16.00 °C
15,*CC(*)C(=O)OCC (repeat unit) [Poly(ethyl acrylate) ],-22 ± 2.1 °C
16,*CC(COCC=C)S* (repeat unit),-59.00 °C
17,*/C=C/c1cc(OCCCCCCCCCCCCCCCC)c(/C=C/c2ccc(*)cc2)cc1OCCCCCCCCCCCCCCCC (repeat unit),33.00 °C
18,*CC(*)(C)C(=O)OCC1CC(NC(=O)C2CC(NC(=O)OC(C)(C)C)CN2C(=O)OC(C)(C)C)CN1C(=O)C1CC(NC(=O)OC(C)(C)C)CN1C(=O)OC(C)(C)C (repeat unit),200.00 °C
19,*O[Si](*)(CCCOCCOCCOC)CCCOCCOCCOC (repeat unit),-63.40 °C
20,*CC(*)N1CCCC1=O (repeat unit) [Poly(N-vinyl pyrrolidone)],145 ± 7.9 °C
21,*CC(*)c1ccc(C(C)(O)CCCC)cc1 (repeat unit),90.00 °C
22,*CC(*)CC(C)C (repeat unit),35.20 °C
23,*O[Si](C)(CCC(F)(F)F)CCC(F)(F)CC[Si](*)(C)CCC(F)(F)F (repeat unit),-38.00 °C
24,*c1cccc(P(C)(=O)c2cccc(N3C(=O)c4ccc(NC(=O)OCCOc5ccc(P(=O)(c6ccccc6)c6ccc(OCCOC(=O)Nc7ccc8c(c7)C(=O)N(*)C8=O)cc6)cc5)cc4C3=O)c2)c1 (repeat unit),201.00 °C

# Other lines, results leading:
row,glass transition temperature,SMILES
1,365.00 °C,*Nc1ccc(NC(=O)c2ccc(NC(=O)c3cc(NC(=O)C45CC6CC(CC(C6)C4)C5)cc(C(*)=O)c3)cc2)cc1 (repeat unit)
2,275.00 °C,*Oc1cc(C(C)(C)C)c(Oc2ccc(C(=O)Nc3ccc(C(C)(C)c4ccc(NC(=O)c5ccc(*)cc5)c(C)c4)cc3C)cc2)cc1C(C)(C)C (repeat unit)
3,266.00 °C,*C(=O)Nc1ccc(Oc2ccccc2-c2ccccc2Oc2ccc(NC(=O)c3ccc4c(c3)C(=O)N(c3ccc(C)c(N5C(=O)c6ccc(*)cc6C5=O)c3)C4=O)cc2)cc1 (repeat unit)
4,165.00 °C,*C(=O)N1C(=S)N(C(=O)c2ccc3c(c2)C(=O)N(c2ccc(Oc4ccc(N5C(=O)c6ccc(*)cc6C5=O)cc4)cc2)C3=O)C(C)=C(C(=O)OCC)C1c1ccc(OC)cc1OC (repeat unit)
5,193.00 °C,*c1ccc(Oc2cccc(Oc3ccc(N4C(=O)c5cccc(Oc6cccc(Oc7cccc8c7C(=O)N(*)C8=O)c6)c5C4=O)cc3)c2)cc1 (repeat unit)
6,141.00 °C,*OC(COC(=O)c1ccc(-c2ccc(C(*)=O)cc2)cc1)COc1ccc(/N=N/c2ccc(C#N)cc2)cc1 (repeat unit)
7,18.00 °C,*Oc1ccc(CC(NC(=O)CCc2ccc(OC(=O)COCCOCC(*)=O)cc2)C(=O)OCCOCCOCC)cc1 (repeat unit)
8,214.00 °C,*C(=O)c1ccc2c(c1)C(=O)N(c1ccc(N3C(=O)c4ccc(*)cc4C3=O)c(S(=O)(=O)[O][Na])c1)C2=O (repeat unit)
9,159.00 °C,*Oc1ccc(Oc2ccc(C(=O)c3ccc(C(=O)c4ccc(*)cc4)cc3)cc2)cc1-c1cccc(C)c1 (repeat unit)
10,132.00 °C,*c1cccc(OCCCCCCCCCOc2cccc(N3C(=O)c4ccc(-c5ccc6c(c5)C(=O)N(*)C6=O)cc4C3=O)c2)c1 (repeat unit)
11,201.70 °C,*Oc1ccc2c(c1)C(C)(c1ccc(OC(*)=O)cc1)CC2(C)C (repeat unit)
12,20.00 °C,*/C=C(/*)CCCOc1ccc(OC(=O)c2ccc(OC)cc2)cc1 (repeat unit)
13,123.00 °C,*Oc1ccc(C(=O)c2cccc(-c3cccc(C(=O)c4ccc(*)cc4)c3)c2)cc1 (repeat unit)
14,46.00 °C,*CC(*)C(=O)OCCOc1ccc(C(=O)Oc2ccc(OC(=O)c3ccc(OCCCCC)cc3)cc2)cc1 (repeat unit)
15,120.00 °C,*CC(*)(C)C(=O)OCCN(C)c1ccc(/N=N/c2ccc(/N=N/c3ccc(C#N)cc3)cc2C)cc1 (repeat unit)
16,81.00 °C,*COC(=O)Nc1ccc(Cc2ccc(NC(=O)OCc3ccc(*)o3)cc2)cc1 (repeat unit)
17,260.00 °C,*c1ccc(Oc2ccc(-c3nc4cc(Oc5ccc(NC(=O)CN6C(=O)c7ccc(C(c8ccc9c(c8)C(=O)N(CC(=O)Nc8ccc(Oc%10ccc%11nc(-c%12ccccc%12)c(*)nc%11c%10)cc8)C9=O)(C(F)(F)F)C(F)(F)F)cc7C6=O)cc5)ccc4nc3-c3ccccc3)cc2)cc1 (repeat unit)
18,109.00 °C,*CC(*)(C)C(=O)Oc1ccc(C(=O)OC)cc1 (repeat unit)
19,235.00 °C,*C(=O)c1ccc2c(c1)C(=O)N(c1ccc(OCCOCCOc3ccc(N4C(=O)c5ccc(*)cc5C4=O)cc3)cc1)C2=O (repeat unit)
20,133.50 °C,*Oc1ccc(Cc2ccc(OC(*)=O)cc2)cc1 (repeat unit)
21,222.00 °C,*c1ccc2c(c1)C(=O)N(c1ccc(Oc3ccc(C(=O)c4cccc(N5C(=O)c6ccc(C(*)(C(F)(F)F)C(F)(F)F)cc6C5=O)c4)cc3)c(C(F)(F)F)c1)C2=O (repeat unit)
22,82.00 °C,*Oc1ccc(CC(NC(=O)CCc2ccc(OC(=O)COCC(*)=O)cc2)C(=O)OC)cc1 (repeat unit)
23,358.00 °C,*c1ccc2c(c1)C(=O)N(c1ccc(-c3ccc(N4C(=O)c5ccc(C(*)(C(F)(F)F)C(F)(F)F)cc5C4=O)c(O)c3)cc1O)C2=O (repeat unit)
24,18.50 °C,*CCCOCCCOC(=O)c1ccc(-c2ccc(C(=O)O*)cc2)cc1 (repeat unit)
